What follows are molecules tested against endogenous cellular BACE2 in the Ins1e rat cell line (Rattus norvegicus (Rat), UniProt Q6IE75) (assay: Assay for BACE inhibition by measuring cellular TMEM27 cleavage (ELISA of shed hTMEM27 from INS-TMEM27 cells)). Details: assay a): cellular TMEM27 cleavage, INS-TMEM27 cells (superscript a).
Assay type: cell-based
Method in brief: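 INS1e-derived cells with doxycycline-inducible (TetOn) full-length human TMEM27 get inhibitor 2 h before 500 ng/ml doxycycline, then 46 h further culture at 37 °C. Shed TMEM27 in supernatant measured by sandwich ELISA (anti-extracellular-domain antibodies); EC50 from concentration-response curve fit.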

Chain of endogenous cellular BACE2 in the Ins1e rat cell line (Q6IE75 63-514): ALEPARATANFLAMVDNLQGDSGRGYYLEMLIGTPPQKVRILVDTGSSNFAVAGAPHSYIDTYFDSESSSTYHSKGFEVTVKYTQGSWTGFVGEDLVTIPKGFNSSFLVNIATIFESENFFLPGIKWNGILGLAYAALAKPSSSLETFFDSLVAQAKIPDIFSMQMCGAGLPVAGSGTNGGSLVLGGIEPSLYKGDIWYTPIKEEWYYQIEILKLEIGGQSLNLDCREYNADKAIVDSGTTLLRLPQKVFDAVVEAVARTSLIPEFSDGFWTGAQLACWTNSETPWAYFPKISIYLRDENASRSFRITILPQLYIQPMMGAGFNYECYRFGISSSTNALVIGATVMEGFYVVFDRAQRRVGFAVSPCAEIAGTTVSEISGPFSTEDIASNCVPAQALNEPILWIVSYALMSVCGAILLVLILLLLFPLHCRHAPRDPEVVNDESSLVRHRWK

SMILES	IC50 [nM]
CN1C(=O)C(C)(C)[C@@](C)(c2cc(N[C@H]3CCC[C@@H]3O)ccc2F)N=C1N [Example 92, (S)-2-Amino-6-(2-fluoro-5-((1S,2S)-2-hydroxycyclopentylamino)phenyl)-3,5,5,6-tetramethyl-5,6-dihydropyrimidin-4(3H)-one]	279
CC(=O)OC1CC2CC1CC2Nc1ccc(F)c([C@@]2(C)N=C(N)N(C)C(=O)C2(C)C)c1 (stereo partly drawn) [Example 93, Acetic acid 5-[3-((S)-2-amino-1,4,5,5-tetramethyl-6-oxo-1,4,5,6-tetrahydro-pyrimidin-4-yl)-4-fluoro-phenylamino]-bicyclo[2.2.1]hept-2-yl ester]	25
COc1cc(C(F)(F)F)ccc1Nc1ccc(F)c([C@@]2(C)N=C(N)N(C)C(=O)C2(C)C)c1 [Example 94, (S)-2-Amino-6-[2-fluoro-5-(2-methoxy-(4-trifluoromethyl)-phenylamino)-phenyl]-3,5,5,6-tetramethyl-5,6-dihydro-3H-pyrimidin-4-one]	704
COC(=O)CC1CCC(Nc2ccc(F)c([C@@]3(C)N=C(N)N(C)C(=O)C3(C)C)c2)C1 (stereo partly drawn) [Example 95, {3-[3-((S)-2-Amino-1,4,5,5-tetramethyl-6-oxo-1,4,5,6-tetrahydro-pyrimidin-4-yl)-4-fluoro-phenylamino]-cyclopentyl}-acetic acid methyl ester]	406
CN1C(=O)C(C)(C)[C@@](C)(c2cc(NCc3nn(C)cc3Cl)ccc2F)N=C1N [Example 96, (S)-2-Amino-6-{5-[(4-chloro-1-methyl-1H-pyrazol-3-ylmethyl)-amino]-2-fluoro-phenyl}-3,5,5,6-tetramethyl-5,6-dihydro-3H-pyrimidin-4-one]	1
CN1C(=O)C(C)(C)[C@@](C)(c2cc(NC[C@@H]3C[C@H]3c3ccccc3)ccc2F)N=C1N [Example 97, (S)-2-Amino-6-{2-fluoro-5-[((1R,2R)-2-phenyl-cyclopropylmethyl)-amino]-phenyl}-3,5,5,6-tetramethyl-5,6-dihydro-3H-pyrimidin-4-one]	242
CCOC(=O)CC1CCC(Nc2ccc(F)c([C@@]3(C)N=C(N)N(C)C(=O)C3(C)C)c2)C1(C)C (stereo partly drawn) [Example 98, {3-[3-((S)-2-Amino-1,4,5,5-tetramethyl-6-oxo-1,4,5,6-tetrahydro-pyrimidin-4-yl)-4-fluoro-phenylamino]-2,2-dimethyl-cyclopentyl}-acetic acid ethyl ester]	57
CN1C(=O)C(C)(C)[C@@](C)(c2cc(Nc3ccn(C)n3)ccc2F)N=C1N [Example 99, (S)-2-Amino-6-[2-fluoro-5-(1-methyl-1H-pyrazol-3-ylamino)-phenyl]-3,5,5,6-tetramethyl-5,6-dihydro-3H-pyrimidin-4-one]	6
CCOC(=O)[C@H]1[C@@H]2C[C@@H](O)C(Nc3ccc(F)c([C@@]4(C)N=C(N)N(C)C(=O)C4(C)C)c3)[C@@H]21 (stereo partly drawn) [Example 100, (1S,3R,5R,6S)-ethyl 2-(3-((S)-2-amino-1,4,5,5-tetramethyl-6-oxo-1,4,5,6-tetrahydropyrimidin-4-yl)-4-fluorophenylamino)-3-hydroxybicyclo[3.1.0]hexane-6-carboxylate]	1
CN1C(=O)C(C)(C)[C@@](C)(c2cc(NC3CC4CC3CC4O)ccc2F)N=C1N (stereo partly drawn) [Example 101, (6S)-2-Amino-6-(2-fluoro-5-(5-hydroxybicyclo[2.2.1]heptan-2-ylamino)phenyl)-3,5,5,6-tetramethyl-5,6-dihydropyrimidin-4(3H)-one]	1
COc1cc(F)c(F)cc1Nc1ccc(F)c([C@@]2(C)N=C(N)N(C)C(=O)C2(C)C)c1 [Example 102, (S)-2-Amino-6-[5-(4,5-difluoro-2-methoxy-phenylamino)-2-fluoro-phenyl]-3,5,5,6-tetramethyl-5,6-dihydro-3H-pyrimidin-4-one]	217
CN1C(=O)C(C)(C)[C@@](C)(c2cc(Nc3ccccc3C#N)ccc2F)N=C1N [Example 103, (S)-2-(3-(2-Amino-1,4,5,5-tetramethyl-6-oxo-1,4,5,6-tetrahydropyrimidin-4-yl)-4-fluorophenylamino)benzonitrile]	1
Cc1cc(CNc2ccc(F)c([C@@]3(C)N=C(N)N(C)C(=O)C3(C)C)c2)no1 [Example 104, (S)-2-Amino-6-{2-fluoro-5-[(5-methyl-isoxazol-3-ylmethyl)-amino]-phenyl}-3,5,5,6-tetramethyl-5,6-dihydro-3H-pyrimidin-4-one]	4
CN1C(=O)C(C)(C)[C@@](C)(c2cc(Nc3ccccn3)ccc2F)N=C1N [Example 105, (S)-2-Amino-6-(2-fluoro-5-(pyridin-2-ylamino)phenyl)-3,5,5,6-tetramethyl-5,6-dihydropyrimidin-4(3H)-one]	12
CN1C(=O)C(C)(C)[C@@](C)(c2cc(NC3CC(C)(C)c4ccccc43)ccc2F)N=C1N (stereo partly drawn) [Example 106, (6S)-2-Amino-6-(5-(3,3-dimethyl-2,3-dihydro-1H-inden-1-ylamino)-2-fluorophenyl)-3,5,5,6-tetramethyl-5,6-dihydropyrimidin-4(3H)-one]	2
CN1C(=O)C(C)(C)[C@@](C)(c2cc(Nc3ccnn3Cc3ccccc3)ccc2F)N=C1N [Example 107, (S)-2-Amino-6-(5-(1-benzyl-1H-pyrazol-5-ylamino)-2-fluorophenyl)-3,5,5,6-tetramethyl-5,6-dihydropyrimidin-4(3H)-one]	2
COc1ccc(Nc2ccc(F)c([C@@]3(C)N=C(N)N(C)C(=O)C3(C)C)c2)c(OC)c1 [Example 108, (S)-2-Amino-6-(5-(2,4-dimethoxyphenylamino)-2-fluorophenyl)-3,5,5,6-tetramethyl-5,6-dihydropyrimidin-4(3H)-one]	178
Cc1nc(CNc2ccc(F)c([C@@]3(C)N=C(N)N(C)C(=O)C3(C)C)c2)co1 [Example 109, (S)-2-Amino-6-{2-fluoro-5-[(2-methyl-oxazol-4-ylmethyl)-amino]-phenyl}-3,5,5,6-tetramethyl-5,6-dihydro-3H-pyrimidin-4-one]	45
Cc1cn[nH]c1CNc1ccc(F)c([C@@]2(C)N=C(N)N(C)C(=O)C2(C)C)c1 [Example 110, (S)-2-Amino-6-{2-fluoro-5-[(4-methyl-2H-pyrazol-3-ylmethyl)-amino]-phenyl}-3,5,5,6-tetramethyl-5,6-dihydro-3H-pyrimidin-4-one]	391
CC(Nc1ccc(F)c([C@@]2(C)N=C(N)N(C)C(=O)C2(C)C)c1)c1ccn[nH]1 (stereo partly drawn) [Example 111, (S)-2-Amino-6-{2-fluoro-5-[1-(2H-pyrazol-3-yl)-ethylamino]-phenyl}-3,5,5,6-tetramethyl-5,6-dihydro-3H-pyrimidin-4-one]	46
CCC1CC(Nc2ccc(F)c([C@@]3(C)N=C(N)N(C)C(=O)C3(C)C)c2)c2ccccc21 (stereo partly drawn) [Example 113, (S)-2-Amino-6-[5-(3-ethyl-indan-1-ylamino)-2-fluoro-phenyl]-3,5,5,6-tetramethyl-5,6-dihydro-3H-pyrimidin-4-one]	36
CN1C(=O)C(C)(C)[C@@](C)(c2cc(NC3CCC(CC(=O)O)C3)ccc2F)N=C1N (stereo partly drawn) [Example 115, 2-(3-(3-((S)-2-Amino-1,4,5,5-tetramethyl-6-oxo-1,4,5,6-tetrahydropyrimidin-4-yl)-4-fluorophenylamino)cyclopentyl)acetic acid]	977

From patent publication US8815881B2 (Hoffmann-La Roche Inc., priority 2010, dated 2014)
